For orientation: IC50 means the concentration needed to halve the response being measured. High values mean weaker potency, low ones greater potency.

Values joined by “and” are separate entries in the source; they are usually repeats but may differ in a detail not shown here. Equal entries are not always repeated. Structures can show the parent of a compound that is named as a salt.

CNDP2, sequence (Q96KP4 whole entry): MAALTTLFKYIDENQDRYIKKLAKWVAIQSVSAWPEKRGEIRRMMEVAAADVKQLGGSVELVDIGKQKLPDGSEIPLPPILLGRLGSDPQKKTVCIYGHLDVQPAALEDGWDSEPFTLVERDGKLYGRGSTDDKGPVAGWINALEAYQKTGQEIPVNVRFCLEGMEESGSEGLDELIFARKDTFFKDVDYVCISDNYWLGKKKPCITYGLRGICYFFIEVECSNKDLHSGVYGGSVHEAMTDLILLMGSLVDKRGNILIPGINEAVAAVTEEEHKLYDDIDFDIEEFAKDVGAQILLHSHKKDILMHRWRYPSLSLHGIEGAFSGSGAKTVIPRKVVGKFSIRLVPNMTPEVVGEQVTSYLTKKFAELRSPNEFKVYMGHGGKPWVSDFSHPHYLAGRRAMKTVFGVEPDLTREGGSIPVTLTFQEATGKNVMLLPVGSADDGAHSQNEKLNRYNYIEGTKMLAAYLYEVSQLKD

One assay has as its target CNDP2 (Homo sapiens (Human), UniProt Q96KP4). Put plainly: CNDP2 enzyme inhibition assay (Met-His hydrolysis, free histidine by o-phthaldialdehyde fluorescence), dose-response. It counts as biochemical. As to conditions: 50 nM purified CNDP2 (Sino Biological), 1 mM Met-His substrate, 30 minutes at 37° C.; TABLE 1. As to the method:
To identify optimal conditions for identifying novel inhibitors of CNDP2, enzyme assays were performed with varied sources of purified enzyme, concentrations of enzyme, peptide substrates, concentrations of peptide substrates and metal cofactors. […] The reaction mixture was incubated for 30 minutes at 37° C. before it was quenched with an equal volume of 1% TCA. Free histidine was quantified after derivatization with a fluorophore (o-phthaldialdehyde from Sigma-Aldrich, excitation 340 nm, emission 460 nm). The reaction was conducted in an automation-friendly format to meet future screening throughput demands. A histidine titration standard curve was also included to enable conversion of fluorescence signal to molar concentration of histidine released by the hydrolysis reaction and to ensure the linearity of the fluorescence signal vs. free histidine.
Compounds of Formula (I) disclosed herein were screened for potency in inhibiting CNDP2 enzyme activity in a dose-response experiment. Bestatin was included with each batch of test molecules as a benchmark for assay quality control.
Consider `CC(C)C[C@H](NC(=O)[C@@H](O)[C@H](N)Cc1ccccc1)C(=O)O` [bestatin, reference compound], for which the IC50 was at least 1000 nM.

The assay is the same for the next values; noted with them: 50 nM purified CNDP2 (Sino Biological), 1 mM Met-His substrate, 30 minutes at 37° C.; TABLE 2.
For the compound `N[C@H](Cc1ccccc1)[C@H](O)C(=O)N[C@@H](C(=O)O)c1cc(Cl)cc(OC(F)(F)F)c1` [Compound 108, (R)-2-((2S,3R)-3-amino-2-hydroxy-4-phenylbutanamido)-2-(3-chloro-5-(trifluoromethoxy)phenyl)acetic acid hydrochloride], the IC50 is at least 1000 nM.

`N[C@H](Cc1ccccc1)[C@H](O)C(=O)N[C@H](C(=O)O)c1cc(Cl)cc(OC(F)(F)F)c1` [Compound 109, (S)-2-((2S,3R)-3-amino-2-hydroxy-4-phenylbutanamido)-2-(3-chloro-5-(trifluoromethoxy)phenyl)acetic acid hydrochloride] displayed an IC50 below 100 nM.

Consider `N[C@H](Cc1ccccc1)[C@H](O)C(=O)N[C@@H](C(=O)O)c1ccc(Br)c(OC(F)(F)F)c1` [Compound 110, (R)-2-((2S,3R)-3-amino-2-hydroxy-4-phenylbutanamido)-2-(4-bromo-3-(trifluoromethoxy)phenyl)acetic acid hydrochloride], for which the IC50 was at least 1000 nM.

The compound `N[C@H](Cc1ccccc1)[C@H](O)C(=O)N[C@H](C(=O)O)c1ccc(Br)c(OC(F)(F)F)c1` [Compound 111, (S)-2-((2S,3R)-3-amino-2-hydroxy-4-phenylbutanamido)-2-(4-bromo-3-(trifluoromethoxy)phenyl)acetic acid hydrochloride] registered an IC50 below 100 nM.

`N[C@H](Cc1ccccc1)[C@H](O)C(=O)N[C@H](C(=O)O)c1ccc(F)c(OC(F)(F)F)c1F` [Compound 114, (S)-2-((2S,3R)-3-amino-2-hydroxy-4-phenylbutanamido)-2-(2,4-difluoro-3-(trifluoromethoxy)phenyl)acetic acid hydrochloride] returned an IC50 below 100 nM.

For the compound `N[C@H](Cc1ccccc1)[C@H](O)C(=O)N[C@H](C(=O)O)c1cccc2c1OC(F)(F)O2` [Compound 115, (S)-2-((2S,3R)-3-amino-2-hydroxy-4-phenylbutanamido)-2-(2,2-difluorobenzo[d][1,3]dioxol-4-yl)acetic acid hydrochloride], the IC50 is ≥ 1000 nM and 100 to 1000 nM.

Take `N[C@H](Cc1ccccc1)[C@H](O)C(=O)N[C@@H](Cc1ccc(OC(F)(F)F)cc1)C(=O)O` [Compound 117, (S)-2-((2S,3R)-3-amino-2-hydroxy-4-phenylbutanamido)-3-(4-(trifluoromethoxy)phenyl)propanoic acid]: the concentration for half-maximal inhibition (IC50) was at least 1000 nM.

`N[C@H](Cc1ccccc1)[C@H](O)C(=O)N[C@@H](Cc1cccc(OC(F)(F)F)c1)C(=O)O` [Compound 118, (S)-2-((2S,3R)-3-amino-2-hydroxy-4-phenylbutanamido)-3-(3-(trifluoromethoxy)phenyl)propanoic acid] showed an IC50 below 100 nM.

With `N[C@H](Cc1ccccc1)[C@H](O)C(=O)N[C@@H](Cc1ccc(OC(F)(F)F)c(F)c1)C(=O)O` [Compound 119, (S)-2-((2S,3R)-3-amino-2-hydroxy-4-phenylbutanamido)-3-(3-fluoro-4-(trifluoromethoxy)phenyl)propanoic acid], the IC50 was in the range of 100 to 1000 nM.

For `N[C@H](Cc1ccc(Cl)cc1)[C@H](O)C(=O)N[C@H](C(=O)O)c1cccc(OC(F)(F)F)c1` [Compound 127, (S)-2-((2S,3R)-3-amino-4-(4-chlorophenyl)-2-hydroxybutanamido)-2-(3-(trifluoromethoxy)phenyl)acetic acid], the IC50 is at least 1000 nM.

`N[C@H](Cc1ccc(Cl)cc1)[C@H](O)C(=O)N[C@@H](C(=O)O)c1cccc(OC(F)(F)F)c1` [Compound 128, (R)-2-((2S,3R)-3-amino-4-(4-chlorophenyl)-2-hydroxybutanamido)-2-(3-(trifluoromethoxy)phenyl)acetic acid] yielded an IC50 of at least 1000 nM.

In turn, `N[C@H](Cc1ccc(Br)cc1)[C@H](O)C(=O)N[C@H](C(=O)O)c1cccc(OC(F)(F)F)c1` [Compound 129, (S)-2-((2S,3R)-3-amino-4-(4-bromophenyl)-2-hydroxybutanamido)-2-(3-(trifluoromethoxy)phenyl)acetic acid] gave an IC50 of at least 1000 nM.

The compound `N[C@H](Cc1ccc(Br)cc1)[C@H](O)C(=O)N[C@@H](C(=O)O)c1cccc(OC(F)(F)F)c1` [Compound 130, (R)-2-((2S,3R)-3-amino-4-(4-bromophenyl)-2-hydroxybutanamido)-2-(3-(trifluoromethoxy)phenyl)acetic acid] showed an IC50 of at least 1000 nM.

Turning to `N[C@H](Cc1ccc(C(F)(F)F)cc1)[C@H](O)C(=O)N[C@@H](C(=O)O)c1cccc(OC(F)(F)F)c1` [Compound 132, (R)-2-((2S,3R)-3-amino-2-hydroxy-4-(4-(trifluoromethyl)phenyl)butanamido)-2-(3-(trifluoromethoxy)phenyl)acetic acid], the IC50 is 100 to 1000 nM.

The compound `N[C@H](Cc1ccc(C(F)(F)F)cc1)[C@H](O)C(=O)N[C@H](C(=O)O)c1cccc(OC(F)(F)F)c1` [Compound 133] came in with an IC50 of at least 1000 nM.

With `N[C@H](Cc1ccc(C(F)(F)F)cc1)[C@H](O)C(=O)N[C@@H](C(=O)O)c1cccc(OC(F)(F)F)c1` [Compound 134], the IC50 was at least 1000 nM.

The assay is the same for the next values; noted with them: bestatin 10 microM down to 5 pM; consistent across run days.
`CC(C)C[C@H](NC(=O)[C@@H](O)[C@H](N)Cc1ccccc1)C(=O)O` [bestatin, reference compound] returned an IC50 of around 2000 nM.
